The values that follow come from US20250000882A1, “LYSOPHOSPHATIDYLCHOLINE COMBINATIONS AS A THERAPY TO TREAT CARDIAC ARREST” (THE FEINSTEIN INSTITUTES FOR MEDICAL RESEARCH, priority 2021, published 2025).

For experiment [1], the system named is rats after 10 minutes of asphyxia-induced cardiac arrest. In words: Rat survival and neurologic function (mNDS) after 10-minute asphyxia-induced cardiac arrest with LPC supplementation. The settings on record: for rat survival for 72 hr after resuscitation (Kaplan-Meier) / modified neurologic deficit score (mNDS) at 24 hours / modified neurologic deficit score (mNDS) at 72 hours: 10-minute cardiac arrest; for rat survival for 72 hr after resuscitation (Kaplan-Meier): 6 mg/kg LPC via femoral vein 1 minute after ROSC, vs vehicle; for modified neurologic deficit score (mNDS) at 24 hours / modified neurologic deficit score (mNDS) at 72 hours: surviving rats, 6 mg/kg, 100% = perfect score. The class given is in vivo. On the procedure:
(§1) The study was conducted using adult male Sprague-Dawley rats (400-500 g, Charles River Laboratories, Wilmington, MA) utilizing procedures for asphyxia-induced cardiac arrest and cardiopulmonary resuscitation (CPR). Briefly, asphyxial cardiac arrest was induced by stopping ventilation after injecting vecuronium bromide (2 mg/kg). After 10 or 14 minutes of asphyxia-cardiac arrest, ventilation was restarted with chest compressions. Typically, rats achieve ROSC within 1 minute after the initiation of CPR. Rats were extubated 2 hours after ROSC. Blood samples were collected from the femoral artery at baseline and multiple time points during cardiac arrest or postresuscitation. Plasma was separated using centrifugation at 1,000×g for 10 minute and stored at −80° C. Brain tissue was harvested from animals that survived for 72 hours after perfusion with saline and fixed with 4% paraformaldehyde.
To test the beneficial effect of LPC supplementation, LPC (18:1) was first administered because it was the only commercially available species out of the four LPC species decreased after 10 minute of cardiac arrest. The study was then extended to test the effect of attached fatty acid by including custom-made LPC (22:6) and LPC (18:0). Different groups of control rats for each set of experiment for accurate assessment were used. Rats were randomized into each group (n=12). Baseline characteristics of rats were not different between the groups in each set of experiment.
The LPC species mixed with 0.5% bovine serum albumin (BSA) in phosphate-buffered saline (0.5 mL) was injected over 1 minute via the femoral vein cannula beginning 1 minute after ROSC, with vehicle group injected with only BSA. 6 mg/kg of LPC was injected, because this dosage preserved LPC level in post-resuscitation plasma for 2 hours after 10-minute cardiac arrest. The purities of the injected LPC species were over 98%.
Survival was followed for 72 hours with brain function evaluated in a blinded manner using the modified neurologic deficit score (mNDS) after resuscitation for surviving rats. The mNDS is expressed as percentage, with 100% representing perfect score.
Kaplan-Meier curves compared survival between the LPC and vehicle groups using the Wilcoxon test. For phospholipids levels, Mann-Whitney U test was used to compare two independent groups. Repeated measures analysis of variance was used to compare the vital signs between two groups. Spearman correlation coefficients were calculated to evaluate the correlation between blood pH and plasma LPC levels. For changes in plasma LPC levels postreperfusion, we performed Jonckheere-Terpstra test. Statistical analyses were performed using the JMP software (Version 14.2, SAS Institute, Cary, NC). p values of less than 0.05 were considered statistically significant. Data were expressed as the mean±se of the mean.

A further experiment deals with heart. In words: Heart ejection fraction at 2 h after resuscitation. In kind it is in vivo, rat. The settings on record: 10 min cardiac arrest per FIG. 13 legend. As for the experimental part: (§2) The beneficial effects of LPC (18:2), LPC(20:4), and LPC (16:0) for their beneficial effects using the same cardiac arrest model were also tested. […] Furthermore, none of the LPC (18:2) treated rats were able to walk whereas 40 to 50% of LPC (22:6) and LPC (18:1) treated rats were able to walk.

The next experiment deals with lung. In words: Lung wet-to-dry weight ratio after cardiac arrest. In kind it is in vivo, rat. On the procedure: as §2
For experiment [2], the system named is neurons in hippocampal CA1 region and cortex. Put plainly: Brain histology (Nissl and Fluoro-Jade B staining) at 72 hours post-resuscitation. In kind it is in vivo, rat. The settings on record: for number of neurons in the hippocampus (Nissl staining), % of control values: 10-minute cardiac arrest; for degenerating cells in the cortex (FJB staining), fold increase compared with control value: vehicle seven-fold. On the procedure: as §1
Plasma phospholipids were analyzed using plasma samples obtained from humans and rats following our established high-performance liquid chromatography-mass spectrometry (HPLC-MS) method. For brain histology, serial coronal sections (14 μm) were prepared from the fixed brain tissue using a cryostat (CM1900, Leica, Germany). The sections were used for Nissl staining to determine the number of surviving neurons in hippocampal CA1 region or Fluoro-Jade B (FJB) staining to count the number of degenerative neurons in the cortex.

In experiment [3] the test system is rats after 12 minutes of asphyxia-induced cardiac arrest. Put plainly: 12 minutes of asphyxia-induced cardiac arrest rat model (survival, plasma troponin I, SSEP). The settings on record: 12 minutes of cardiac arrest. The class given is in vivo. As for the experimental part:
as §1
The therapeutic effects of LPC species as well as combination of all three species was then tested using 12 minutes of cardiac arrest, which induces more severe injury than 10 minutes of cardiac arrest. […] Also compared was the plasma troponin I level to assess the effects of individual LPC species LPC (18:0), LPC (18:1), LPC (22:6) and the LPC Combination for heart function (see FIG. 8 and FIG. 9 respectively). […] Since these rats are severely injured and mNDS are not appropriate to measure their brain function, we used SSEP to compare the brain function between LPC (18:1) and LPC combination groups.

For experiment [4] the following is noted: diet supplemented with LPC; cited from earlier work.
A further experiment has as its system neuronal cells. Particulars: rats supplemented with LPC; cited from earlier work.
For a further experiment, the system named is IL-6. In words: Plasma IL-6 level, 10 minutes of asphyxia-induced cardiac arrest rat model. The class given is in vivo. The settings on record: after 10 minutes of cardiac arrest. As for the experimental part:
(§3) Using the 10 minutes of asphyxia-induced cardiac arrest rat model, supplementing LPC (18:1) decreased inflammatory IL-6′ levels and increased the anti-inflammatory IL-10 levels in rat plasma after 10 minutes of cardiac arrest (FIG. 15A and FIG. 15B).

The test system of a further experiment is IL-10. Put plainly: Plasma IL-10 level, 10 minutes of asphyxia-induced cardiac arrest rat model. In kind it is in vivo. The settings on record: after 10 minutes of cardiac arrest. As for the experimental part:
as §3

Consider “lysophosphatidylcholine (18:2) [LPC (18:2)]”, for which the “neuroprotective effect (mNDS at 48 hours and 72 hours)” value in experiment [1] (10 min cardiac arrest per FIG. 12 legend) is “not as good as LPC (18:1) or LPC (22:6)”. The “rat survival (Kaplan-Meier)” value in [1] ("same cardiac arrest model", 10 min cardiac arrest per FIG. 11 legend) is “significantly improve survival”. In addition, the “treated rats able to walk” value in experiment [1] (after cardiac arrest) is on record as “none”. Also, in the experiment with heart, the heart ejection fraction result is listed as “improved”. The lung wet-to-dry ratio result with lung is given as “Reduced”.
For the compound “lysophosphatidylcholine (18:0) [LPC (18:0)]”, in [1], the “rat survival for 72 hr after resuscitation (Kaplan-Meier)” value (from here on “rat survival for 72 hr”) is on record as “no improved outcomes”. Besides, the “effect on neuronal cellular morphology” value in [2] is recorded as “minimal effect”. In addition, in [3], the “plasma troponin I level” value was “only the LPC Combination showed a decrease”.
For the compound “lysophosphatidylcholine (22:6) [LPC (22:6)]”, in experiment [1], the “rat survival for 72 hr” value is reported as “improved rat survival”, the “modified neurologic deficit score (mNDS) at 24 hours” value was 51% and the “modified neurologic deficit score (mNDS) at 72 hours” value was found to be 86%. Also, in [2], the “number of neurons in the hippocampus (Nissl staining), % of control values” is on record as 88% and the “degenerating cells in the cortex (FJB staining), fold increase compared with control value” is given as “decreased to a three-fold increase”. For the same compound, the “plasma troponin I level” value in experiment [3] was “only the LPC Combination showed a decrease”. Besides, in experiment [4], the cognitive functions result is listed as “improved their cognitive functions”.
Take `CCCCCCCCCCCCCC(=O)OC[C@@H](O)COP(=O)([O-])OCC[N+](C)(C)C` [LPC (14:0)]: the “protection of neuronal cells after brain ischemia” value in the experiment with neuronal cells was “provided protecting to neuronal cells”.
Regarding “lysophosphatidylcholine (18:1) [LPC (18:1)]”, in experiment [1], the “rat survival for 72 hr” value is reported as “significantly improved rat survival”, the “modified neurologic deficit score (mNDS) at 24 hours” value was 66% and the “modified neurologic deficit score (mNDS) at 72 hours” value amounted to 76%. Besides, in experiment [2], the “number of neurons in the hippocampus (Nissl staining), % of control values” was found to be 86% and the “degenerating cells in the cortex (FJB staining), fold increase compared with control value” was “decreased to a three-fold increase”. For the same compound, in experiment [3], the “plasma troponin I level” value is “only the LPC Combination showed a decrease”, the “rat survival (Kaplan-Meier)” value is “most significantly improved rat survival” and the “return of the SSEP signal (brain function)” value is “did not happen”. In the experiment with IL-6, the “inflammatory IL-6 levels in rat plasma” value was “decreased”. For the same compound, the “anti-inflammatory IL-10 levels in rat plasma” value with IL-10 was “increased”.
